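Results reflect a 48-hour exposure of cells in 96-well plates to compound at five concentrations. GI50 is the concentration that inhibits growth by half.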 The source made the active and inactive calls. Cut-off read from the data, not from the text of the source: active = GI50 up to about 1.1 µM and inactive = higher.
Tests used:
Assay in all cases: NCI anticancer screen, dose series, 48 h
[1] = test system: SF-268
[2] = test system: SF-539
[3] = test system: UACC-62
[4] = test system: KM-20L2
[5] = test system: LXFL 529
[6] = test system: OVCAR-3
[7] = test system: DLD-1
[8] = test system: SNB-78
[9] = test system: ACHN
[10] = test system: SK-OV-3
[11] = test system: A549
[12] = test system: Malme-3M
[13] = test system: SNB-75
[14] = test system: K562
[15] = test system: U-251
[16] = test system: SN12C
[17] = test system: RPMI-8226
[18] = test system: RXF 393
[19] = test system: NCI-H522
[20] = test system: NCI-H460
[21] = test system: IGROV-1
[22] = test system: HOP-18
[23] = test system: MOLT-4
[24] = test system: SF-295
[25] = test system: SNB-19
[26] = test system: EKVX
[27] = test system: OVCAR-5
[28] = test system: NCI-H226
[29] = test system: HOP-62
[30] = test system: HCT-15
[31] = test system: DMS-273
[32] = test system: OVCAR-4
[33] = test system: SR
[34] = test system: CCRF-CEM
[35] = test system: SK-MEL-5
[36] = test system: LOX IMVI
[37] = test system: NCI-H23
[38] = test system: CAKI-1
[39] = test system: SK-MEL-2
[40] = test system: SW-620
[41] = test system: OVCAR-8
[42] = test system: HL-60
[43] = test system: UACC-257
[44] = test system: RXF 631
[45] = test system: M14
[46] = test system: TK-10
[47] = test system: HT-29
[48] = test system: HCT-116
[49] = test system: KM12
[50] = test system: XF498
[51] = test system: A498
[52] = test system: HCC 2998
[53] = test system: UO-31
[54] = test system: DMS-114
[55] = test system: M19-MEL
[56] = test system: 786-0
[57] = test system: SK-MEL-28
[58] = test system: HOP-92
[59] = test system: COLO 205

## CCOC(=O)C1CCn2c(nc3c(=O)n(C)c(=O)n(C)c32)S1 (configuration not stated)
[1]
  GI50: > 100 µM (inactive)
[2]
  GI50: > 100 µM (inactive)
[3]
  GI50: > 100 µM (inactive)
[4]
  GI50: > 100 µM (inactive)
[5]
  GI50: > 100 µM (inactive)
[6]
  GI50: > 100 µM (inactive)
[7]
  GI50: > 100 µM (inactive)
[8]
  GI50: > 100 µM (inactive)
[9]
  GI50: > 100 µM (inactive)
[10]
  GI50: > 100 µM (inactive)
[11]
  GI50: > 100 µM (inactive)
[12]
  GI50: > 100 µM (inactive)
[13]
  GI50: > 100 µM (inactive)
[14]
  GI50: > 100 µM (inactive)
[15]
  GI50: > 100 µM (inactive)
[16]
  GI50: > 100 µM (inactive)
[17]
  GI50: > 100 µM (inactive)
[18]
  GI50: > 100 µM (inactive)
[19]
  GI50: > 100 µM (inactive)
[20]
  GI50: > 100 µM (inactive)
[21]
  GI50: > 100 µM (inactive)
[22]
  GI50: > 100 µM (inactive)
[23]
  GI50: > 100 µM (inactive)
[24]
  GI50: > 100 µM (inactive)
[25]
  GI50: > 100 µM (inactive)
[26]
  GI50: > 100 µM (inactive)
[27]
  GI50: > 100 µM (inactive)
[28]
  GI50: > 100 µM (inactive)
[29]
  GI50: > 100 µM (inactive)
[30]
  GI50: > 100 µM
[31]
  GI50: > 100 µM (inactive)
[32]
  GI50: > 100 µM (inactive)
[33]
  GI50: > 100 µM (inactive)
[34]
  GI50: > 100 µM (inactive)
[35]
  GI50: > 100 µM (inactive)
[36]
  GI50: > 100 µM (inactive)
[37]
  GI50: > 100 µM (inactive)
[38]
  GI50: > 100 µM (inactive)
[39]
  GI50: > 100 µM (inactive)
[40]
  GI50: > 100 µM (inactive)
[41]
  GI50: > 100 µM (inactive)
[42]
  GI50: > 100 µM (inactive)
[43]
  GI50: > 100 µM (inactive)
[44]
  GI50: > 100 µM (inactive)
[45]
  GI50: > 100 µM (inactive)
[46]
  GI50: > 100 µM (inactive)
[47]
  GI50: > 100 µM (inactive)
[48]
  GI50: > 100 µM (inactive)

## CN1C(=O)C(=CN(C)c2ccccc2)C(=O)N(C)C1=O
[49]
  GI50: > 100 µM (inactive)
[2]
  GI50: > 100 µM (inactive)
[3]
  GI50: 91.6 µM (inactive)
[4]
  GI50: > 100 µM (inactive)
[5]
  GI50: > 100 µM (inactive)
[6]
  GI50: 90.4 µM (inactive)
[7]
  GI50: > 100 µM (inactive)
[8]
  GI50: > 100 µM (inactive)
[50]
  GI50: > 100 µM (inactive)
[9]
  GI50: > 100 µM (inactive)
[51]
  GI50: 95.7 µM (inactive)
[11]
  GI50: > 100 µM (inactive)
[12]
  GI50: 36.9 µM (inactive)
[13]
  GI50: 92.7 µM (inactive)
[14]
  GI50: > 100 µM (inactive)
[15]
  GI50: > 100 µM (inactive)
[16]
  GI50: > 100 µM (inactive)
[52]
  GI50: > 100 µM (inactive)
[53]
  GI50: > 100 µM (inactive)
[17]
  GI50: > 100 µM (inactive)
[18]
  GI50: 69 µM (inactive)
[20]
  GI50: > 100 µM (inactive)
[54]
  GI50: 57.7 µM (inactive)
[55]
  GI50: 49.2 µM (inactive)
[21]
  GI50: 56.5 µM (inactive)
[22]
  GI50: 69.8 µM (inactive)
[23]
  GI50: > 100 µM (inactive)
[24]
  GI50: > 100 µM (inactive)
[25]
  GI50: > 100 µM (inactive)
[26]
  GI50: 65.8 µM (inactive)
[27]
  GI50: > 100 µM (inactive)
[28]
  GI50: 63.2 µM (inactive)
[30]
  GI50: > 100 µM
[31]
  GI50: > 100 µM (inactive)
[32]
  GI50: > 100 µM (inactive)
[33]
  GI50: 37.2 µM (inactive)
[34]
  GI50: 40.4 µM (inactive)
[35]
  GI50: > 100 µM (inactive)
[36]
  GI50: > 100 µM (inactive)
[38]
  GI50: 30.1 µM (inactive)
[39]
  GI50: > 100 µM (inactive)
[40]
  GI50: 80.5 µM (inactive)
[41]
  GI50: > 100 µM (inactive)
[42]
  GI50: 51.1 µM (inactive)
[43]
  GI50: > 100 µM (inactive)
[56]
  GI50: > 100 µM (inactive)
[57]
  GI50: > 100 µM (inactive)
[45]
  GI50: 74.5 µM (inactive)
[46]
  GI50: > 100 µM (inactive)
[48]
  GI50: > 100 µM (inactive)

## Cc1c(C(=O)/C=C/c2ccccc2Cl)[n+]([O-])c2ccccc2[n+]1[O-]
[49]
  GI50: 14.3 µM (inactive)
[2]
  GI50: 15.9 µM (inactive)
[4]
  GI50: 16.9 µM (inactive)
[5]
  GI50: 7.08 µM (inactive)
[6]
  GI50: 15.9 µM (inactive)
[7]
  GI50: 6.53 µM (inactive)
[8]
  GI50: 12.4 µM (inactive)
[9]
  GI50: 17.2 µM (inactive)
[51]
  GI50: 14 µM (inactive)
[58]
  GI50: 15.3 µM (inactive)
[10]
  GI50: 20.4 µM (inactive)
[11]
  GI50: 15.9 µM (inactive)
[12]
  GI50: 15.6 µM (inactive)
[59]
  GI50: 15.5 µM (inactive)
[13]
  GI50: 16.4 µM (inactive)
[14]
  GI50: 5.53 µM (inactive)
[15]
  GI50: 14.3 µM (inactive)
[16]
  GI50: 15.1 µM (inactive)
[53]
  GI50: 19.1 µM (inactive)
[17]
  GI50: 11.9 µM (inactive)
[19]
  GI50: 11.2 µM (inactive)
[20]
  GI50: 10.3 µM (inactive)
[54]
  GI50: 6.97 µM (inactive)
[55]
  GI50: 14.7 µM (inactive)
[21]
  GI50: 15 µM (inactive)
[22]
  GI50: 15 µM (inactive)
[23]
  GI50: 16 µM (inactive)
[24]
  GI50: 14.7 µM (inactive)
[25]
  GI50: 17.3 µM (inactive)
[26]
  GI50: 17.3 µM (inactive)
[27]
  GI50: 20.9 µM (inactive)
[28]
  GI50: 15.3 µM (inactive)
[29]
  GI50: 19.9 µM (inactive)
[30]
  GI50: 10.1 µM
[31]
  GI50: 14.3 µM (inactive)
[32]
  GI50: 12.1 µM (inactive)
[33]
  GI50: 16.6 µM (inactive)
[35]
  GI50: 18 µM (inactive)
[37]
  GI50: 14.5 µM (inactive)
[38]
  GI50: 3.24 µM (inactive)
[39]
  GI50: 13.6 µM (inactive)
[40]
  GI50: 10.3 µM (inactive)
[41]
  GI50: 13.3 µM (inactive)
[42]
  GI50: 12.3 µM (inactive)
[43]
  GI50: 13.4 µM (inactive)
[56]
  GI50: 12.6 µM (inactive)
[57]
  GI50: 16.6 µM (inactive)
[44]
  GI50: 15.2 µM (inactive)
[45]
  GI50: 15.2 µM (inactive)
[47]
  GI50: 17.3 µM (inactive)
[48]
  GI50: 10.6 µM (inactive)

## CC1=CCCC2C(C=O)(C1)CC(C)C2(CO)CC/C(=C/CO)CO (configuration not stated)
[49]
  GI50: > 100 µM (inactive)
[3]
  GI50: > 100 µM (inactive)
[5]
  GI50: 79.3 µM (inactive)
[6]
  GI50: > 100 µM (inactive)
[7]
  GI50: > 100 µM (inactive)
[8]
  GI50: > 100 µM (inactive)
[9]
  GI50: > 100 µM (inactive)
[51]
  GI50: > 100 µM (inactive)
[58]
  GI50: 30 µM (inactive)
[10]
  GI50: > 100 µM (inactive)
[11]
  GI50: > 100 µM (inactive)
[12]
  GI50: > 100 µM (inactive)
[59]
  GI50: > 100 µM (inactive)
[13]
  GI50: 37.8 µM (inactive)
[14]
  GI50: 89.5 µM (inactive)
[15]
  GI50: > 100 µM (inactive)
[16]
  GI50: > 100 µM (inactive)
[52]
  GI50: > 100 µM (inactive)
[53]
  GI50: 24.9 µM (inactive)
[17]
  GI50: 67.3 µM (inactive)
[18]
  GI50: > 100 µM (inactive)
[19]
  GI50: 38.4 µM (inactive)
[20]
  GI50: > 100 µM (inactive)
[54]
  GI50: > 100 µM (inactive)
[55]
  GI50: > 100 µM (inactive)
[21]
  GI50: > 100 µM (inactive)
[22]
  GI50: > 100 µM (inactive)
[23]
  GI50: 44.7 µM (inactive)
[24]
  GI50: > 100 µM (inactive)
[26]
  GI50: > 100 µM (inactive)
[28]
  GI50: 38.5 µM (inactive)
[30]
  GI50: > 100 µM
[31]
  GI50: > 100 µM (inactive)
[34]
  GI50: 71.9 µM (inactive)
[35]
  GI50: > 100 µM (inactive)
[36]
  GI50: > 100 µM (inactive)
[37]
  GI50: 90.6 µM (inactive)
[38]
  GI50: 57.3 µM (inactive)
[40]
  GI50: > 100 µM (inactive)
[41]
  GI50: > 100 µM (inactive)
[43]
  GI50: 98.9 µM (inactive)
[56]
  GI50: > 100 µM (inactive)
[57]
  GI50: > 100 µM (inactive)
[44]
  GI50: > 100 µM (inactive)
[45]
  GI50: > 100 µM (inactive)
[46]
  GI50: > 100 µM (inactive)
[47]
  GI50: > 100 µM (inactive)
[48]
  GI50: 69.5 µM (inactive)

Reference: ChEMBL document CHEMBL1201862, “PubChem BioAssay data set” (2004)
